Laboratory results reported in article PMC11459959, “Discovery of new acetamide derivatives of 5-indole-1,3,4-oxadiazol-2-thiol as inhibitors of HIV-1 Tat-mediated viral transcription” (Antimicrobial Agents and Chemotherapy, 2024).

Tests used:
CDK9/Cyclin T = biological target: T1, CDK9/Cyclin T (Homo sapiens, UniProt P50750); assay: CDK9/Cyclin T kinase assay; assay type: biochemical; settings: in vitro kinase kit, serial dilutions
T1 construct: purchased BPS Bioscience
Description: In brief, 12.5 µL of the Master Mix (Kinase Assay Buffer 1 supplemented with ATP and CDK Substrate Peptide 2) was mixed with 2.5 µL of each test compound diluted serially. The mixture was then mixed with CDK9/Cyclin T Kinase (50 ng/10 µL diluted in 1× Kinase Assay Buffer 1) and incubated for 45 min. The kinase activity was measured using Kinase-Glo Max (Promega). A decreased level of luminescence relative to ATP concentration indicated kinase activity, which was expressed as the percent of DMSO control.

HIV-1 integrase = biological target: T2, HIV-1 integrase (Human immunodeficiency virus type 1 group M subtype B, UniProt P04585); assay: In vitro integrase assay; assay type: biochemical; settings: 10 µM
T2 construct: purchased XpressBio
Description: (§1) Fig 5 (A) Time-of-addition assay. […] Subsequently, the cells were treated with the compounds at the indicated time points (0, 1, 2, 4, 6, 8, 10, 12, 24, 30, 36, 42, and 48 h) after HIV-1 infection. The final concentrations of compounds are described in Materials and Methods. Viral activity according to the timing of drug addition was measured as F-Luc activity at 54 h after infection. The relative activities are represented as the mean ± SD (n = 3) compared with the activity observed 54 h post-infection. The relative time frames associated with each HIV-1 infection step are defined based on the time frame of susceptibility to the drug that blocks that particular infection step. […] At 16 h after infection, the viral reverse transcription (RT) product (viral cDNA) level was determined by quantitative real-time PCR (RT-qPCR) using gag and 18S rRNA primer sets and represented as the mean ± SD (n = 3) normalized against the amount of the 18S rRNA compared with the DMSO control. **P < 0.01 compared with the vehicle (DMSO). […] At 40 h after infection, cellular chromosomal DNA was purified, and the integrated proviral DNA was detected through nested Alu-PCR amplification.
(§2) The activity of HIV-1 RT was determined as previously described with some minor modifications ([66][–][68]). […] The relative levels of RT products were analyzed using the ΔΔCt-method, as described above. […]

[1] = system: reverse transcription of the infected virus; assay: Viral reverse transcription product (viral cDNA) in infected A3.01 cells, RT-qPCR; assay type: cell-based, HIV-1; settings: 1.5 µM, 16 h after infection
Description: as §1, §2

T1 sequence (P50750 whole entry): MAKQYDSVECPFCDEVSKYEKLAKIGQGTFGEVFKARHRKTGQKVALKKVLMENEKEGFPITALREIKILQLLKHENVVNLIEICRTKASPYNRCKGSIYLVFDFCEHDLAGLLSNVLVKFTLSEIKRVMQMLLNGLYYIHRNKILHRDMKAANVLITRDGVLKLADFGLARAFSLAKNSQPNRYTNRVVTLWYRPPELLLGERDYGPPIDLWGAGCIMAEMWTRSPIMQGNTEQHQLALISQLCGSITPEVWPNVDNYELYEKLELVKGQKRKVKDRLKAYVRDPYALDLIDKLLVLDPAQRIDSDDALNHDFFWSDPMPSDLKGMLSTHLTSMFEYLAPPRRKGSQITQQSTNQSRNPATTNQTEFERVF
T1 sequence (O60563 whole entry partner): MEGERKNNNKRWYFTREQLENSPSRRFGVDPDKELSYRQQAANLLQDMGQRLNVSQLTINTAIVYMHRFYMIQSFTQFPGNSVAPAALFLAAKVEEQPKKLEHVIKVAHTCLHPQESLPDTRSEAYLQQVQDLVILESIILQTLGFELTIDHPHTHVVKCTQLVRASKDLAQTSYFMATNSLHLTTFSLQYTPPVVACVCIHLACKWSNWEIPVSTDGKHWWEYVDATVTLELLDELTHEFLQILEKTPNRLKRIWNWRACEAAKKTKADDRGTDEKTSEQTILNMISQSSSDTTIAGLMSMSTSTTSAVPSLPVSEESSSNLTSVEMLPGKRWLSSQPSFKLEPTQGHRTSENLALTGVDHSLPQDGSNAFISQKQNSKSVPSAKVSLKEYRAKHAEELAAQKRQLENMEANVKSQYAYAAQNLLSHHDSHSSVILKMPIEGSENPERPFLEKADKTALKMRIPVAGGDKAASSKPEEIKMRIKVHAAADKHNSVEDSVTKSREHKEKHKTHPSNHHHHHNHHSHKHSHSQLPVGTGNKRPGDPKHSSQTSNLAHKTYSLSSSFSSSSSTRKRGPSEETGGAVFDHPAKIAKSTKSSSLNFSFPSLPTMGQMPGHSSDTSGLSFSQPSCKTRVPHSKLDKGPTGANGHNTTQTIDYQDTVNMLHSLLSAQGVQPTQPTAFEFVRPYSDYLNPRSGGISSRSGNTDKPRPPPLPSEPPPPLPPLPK

Row | Compound | inhibition of CDK9/Cyclin T kinase activity (CDK9/Cyclin T) | inhibitory effect on in vitro integrase activity (HIV-1 integrase) | inhibitory effect on reverse transcription of the infected virus [1]
1 | Cc1[nH]c2ccc(-c3nnc(SCC(=O)N4CCCCC4)o3)cc2c1C [Compound 9, 2-((5-(2,3-Dimethyl-1H-indol-5-yl)-1,3,4-oxadiazol-2-yl)thio)-1-(piperidin-1-yl)ethan-1-one] | did not exhibit | did not exhibit the inhibitory effect | did not exhibit the inhibitory effect
2 | Cc1[nH]c2ccc(-c3nnc(SCC(=O)N4CCCC4)o3)cc2c1C [Compound 13, 2-((5-(2,3-Dimethyl-1H-indol-5-yl)-1,3,4-oxadiazol-2-yl)thio)-1-(pyrrolidin-1-yl)ethan-1-one] | did not exhibit | did not exhibit the inhibitory effect | did not exhibit the inhibitory effect
